The target in this experiment is MYT1 protein (Homo sapiens (Human), UniProt Q99640). The experiment can be described thus: Test for binding to ATP binding site of MYT1 (Kinase Tracer 178 / Eu-Anti-GST antibody TR-FRET). Particulars: ATP binding site of MYT1, 30 minutes at room temperature. In general terms: In TR-FRET formats the signal depends on donor and acceptor labels being close together.

Our source for the IC50 values is US20260062412A1, “NITROGEN-CONTAINING HETEROCYCLIC COMPOUND HAVING MYT1 INHIBITORY ACTIVITY” (CHUGAI SEIYAKU KABUSHIKI KAISHA, priority 2023, published 2026).

pIC50: −log10 of the molar value.

Sequence of MYT1 protein (Q99640 whole entry): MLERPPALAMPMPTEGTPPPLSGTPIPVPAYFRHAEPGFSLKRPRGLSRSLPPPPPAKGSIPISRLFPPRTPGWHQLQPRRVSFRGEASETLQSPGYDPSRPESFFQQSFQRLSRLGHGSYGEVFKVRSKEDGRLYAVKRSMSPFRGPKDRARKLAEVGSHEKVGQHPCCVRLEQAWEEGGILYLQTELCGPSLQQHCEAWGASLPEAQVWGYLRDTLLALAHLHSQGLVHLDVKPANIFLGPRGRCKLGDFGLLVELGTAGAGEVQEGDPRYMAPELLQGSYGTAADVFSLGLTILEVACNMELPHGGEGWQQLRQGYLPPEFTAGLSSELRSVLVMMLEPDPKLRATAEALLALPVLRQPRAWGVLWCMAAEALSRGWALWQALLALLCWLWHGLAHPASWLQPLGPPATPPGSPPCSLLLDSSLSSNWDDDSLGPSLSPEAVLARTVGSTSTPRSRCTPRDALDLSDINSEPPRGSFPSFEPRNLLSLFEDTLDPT

On to `CC(C)Nc1cc2c(-c3ccc(F)c4[nH]ncc34)c(N)c(=O)[nH]c2c2ncccc12` [Compound D20, 3-Amino-4-(7-fluoro-1H-indazol-4-yl)-6-(propan-2-ylamino)-1H-1,10-phenanthrolin-2-one], for which the pIC50 is 8.15.

As to `Nc1c(-c2ccc(F)c3[nH]ncc23)c2cc(C3CCNCC3)c3cccnc3c2[nH]c1=O` [Compound D21, 3-Amino-4-(7-fluoro-1H-indazol-4-yl)-6-piperidin-4-yl-1H-1,10-phenanthrolin-2-one], the pIC50 is 8.42.

On to `CN1CCC(c2cc3c(-c4ccc(F)c5[nH]ncc45)c(N)c(=O)[nH]c3c3ncccc23)CC1` [Compound D22, 3-Amino-4-(7-fluoro-1H-indazol-4-yl)-6-(1-methylpiperidin-4-yl)-1H-1,10-phenanthrolin-2-one], for which the pIC50 is 8.54.

Regarding `CC(C)N1CCC(c2cc3c(-c4ccc(F)c5[nH]ncc45)c(N)c(=O)[nH]c3c3ncccc23)CC1` [Compound D23, 3-Amino-4-(7-fluoro-1H-indazol-4-yl)-6-(1-propan-2-ylpiperidin-4-yl)-1H-1,10-phenanthrolin-2-one], the pIC50 is 8.19.

`Nc1c(-c2ccc(F)c3[nH]ncc23)c2cc(C3CCN(C4CCC4)CC3)c3cccnc3c2[nH]c1=O` [Compound D24, 3-Amino-6-(1-cyclobutylpiperidin-4-yl)-4-(7-fluoro-1H-indazol-4-yl)-1H-1,10-phenanthrolin-2-one] gave a pIC50 of 8.16.

For the molecule `Nc1c(-c2ccc(F)c3[nH]ncc23)c2cc(C3CCN(C4CCOCC4)CC3)c3cccnc3c2[nH]c1=O` [Compound D25, 3-Amino-4-(7-fluoro-1H-indazol-4-yl)-6-[1-(oxan-4-yl)piperidin-4-yl]-1H-1,10-phenanthrolin-2-one], the pIC50 was 8.11.

`CCN1CCC(c2cc3c(-c4ccc(F)c5[nH]ncc45)c(N)c(=O)[nH]c3c3ncccc23)CC1` [Compound D26, 3-Amino-6-(1-ethylpiperidin-4-yl)-4-(7-fluoro-1H-indazol-4-yl)-1H-1,10-phenanthrolin-2-one] gave a pIC50 of 8.48.

`Nc1c(-c2ccc(F)c3[nH]ncc23)c2cc(C3CCN(C4COC4)CC3)c3cccnc3c2[nH]c1=O` [Compound D27, 3-Amino-4-(7-fluoro-1H-indazol-4-yl)-6-[1-(oxetan-3-yl)piperidin-4-yl]-1H-1,10-phenanthrolin-2-one]: the pIC50 was 9.28.

The molecule `Nc1c(-c2ccc(F)c3[nH]ncc23)c2cc(C3CNC3)c3cccnc3c2[nH]c1=O` [Compound D28, 3-Amino-6-(azetidin-3-yl)-4-(7-fluoro-1H-indazol-4-yl)-1H-1,10-phenanthrolin-2-one] gave a pIC50 of 8.77.

Turning to `CC(C)N1CC(c2cc3c(-c4ccc(F)c5[nH]ncc45)c(N)c(=O)[nH]c3c3ncccc23)C1` [Compound D29, 3-Amino-4-(7-fluoro-1H-indazol-4-yl)-6-(1-propan-2-ylazetidin-3-yl)-1H-1,10-phenanthrolin-2-one], the pIC50 is 8.24.

With `CN1CC(c2cc3c(-c4ccc(F)c5[nH]ncc45)c(N)c(=O)[nH]c3c3ncccc23)C1` [Compound D30, 3-Amino-4-(7-fluoro-1H-indazol-4-yl)-6-(1-methylazetidin-3-yl)-1H-1,10-phenanthrolin-2-one], the pIC50 is 8.54.

For `Nc1c(-c2cccc3[nH]ncc23)c2ccccc2oc1=O` [Compound E1, 3-Amino-4-(1H-indazol-4-yl) chromen-2-one], the pIC50 was 5.96.

In turn, `O=c1[nH]c2ccccc2c(-c2cccc3[nH]ncc23)c1O` [Compound E2, 3-Hydroxy-4-(1H-indazol-4-yl)-1H-quinolin-2-one] showed a pIC50 of 6.08.

Consider `Nc1c(-c2ccc(F)c3[nH]ncc23)c2cc(Br)c3ncc(F)cc3c2[nH]c1=O` [Compound F1, 3-Amino-6-bromo-9-fluoro-4-(7-fluoro-1H-indazol-4-yl)-1H-1,7-phenanthrolin-2-one], for which the negative logarithm of the IC50 (pIC50) is 7.92.

With `Cc1cc2c(-c3ccc(F)c4[nH]ncc34)c(N)c(=O)[nH]c2c2cc(F)cnc12` [Compound F3, 3-Amino-9-fluoro-4-(7-fluoro-1H-indazol-4-yl)-6-methyl-1H-1,7-phenanthrolin-2-one], the pIC50 is 8.40.

For the molecule `Nc1c(-c2cc(F)c(F)c3[nH]ncc23)c2cc(Br)c3ncc(F)cc3c2[nH]c1=O` [Compound F4, 3-Amino-6-bromo-4-(6,7-difluoro-1H-indazol-4-yl)-9-fluoro-1H-1,7-phenanthrolin-2-one], the pIC50 is 7.66.

As for `COc1cc2c(-c3cc(F)c(F)c4[nH]ncc34)c(N)c(=O)[nH]c2c2cc(F)cnc12` [Compound F5, 3-Amino-4-(6,7-difluoro-1H-indazol-4-yl)-9-fluoro-6-methoxy-1H-1,7-phenanthrolin-2-one], the pIC50 was 8.48.

Take `Cc1cc2c(-c3cc(F)c(F)c4[nH]ncc34)c(N)c(=O)[nH]c2c2cc(F)cnc12` [Compound F6, 3-Amino-4-(6,7-difluoro-1H-indazol-4-yl)-9-fluoro-6-methyl-1H-1,7-phenanthrolin-2-one]: the pIC50 is 8.03.

In turn, `Nc1c(-c2ccc(F)c3[nH]ncc23)c2cc(Br)c3nccnc3c2[nH]c1=O` [Compound G1, 8-Amino-5-bromo-7-(7-fluoro-1H-indazol-4-yl)-10H-pyrido[2,3-f]quinoxalin-9-one] showed a pIC50 of 7.80.

The molecule `O=c1[nH]c2c(cc(Br)c3nccnc32)c(-c2ccc(F)c3[nH]ncc23)c1Cl` [Compound G2, 5-Bromo-8-chloro-7-(7-fluoro-1H-indazol-4-yl)-10H-pyrido[2,3-f]quinoxalin-9-one] showed a pIC50 of 6.57.

Take `Cc1cc2c(-c3ccc(F)c4[nH]ncc34)c(N)c(=O)[nH]c2c2nccnc12` [Compound G3, 8-Amino-7-(7-fluoro-1H-indazol-4-yl)-5-methyl-10H-pyrido[2,3-f]quinoxalin-9-one]: the pIC50 is 8.10.

For `Nc1c(-c2ccc(F)c3[nH]ncc23)c2cc(C3CC3)c3nccnc3c2[nH]c1=O` [Compound G4, 8-Amino-5-cyclopropyl-7-(7-fluoro-1H-indazol-4-yl)-10H-pyrido[2,3-f]quinoxalin-9-one], the pIC50 is 8.49.

`CS(=O)(=O)Nc1cc2c(-c3ccc(F)c4[nH]ncc34)c(N)c(=O)[nH]c2c2nccnc12` [Compound G5, N-[8-amino-7-(7-fluoro-1H-indazol-4-yl)-9-oxo-10H-pyrido[2,3-f]quinoxalin-5-yl]methanesulfonamide] gave a pIC50 of 8.03.

In the case of `Nc1c(-c2ccc(F)c3[nH]ncc23)c2cc(NS(=O)(=O)C3CC3)c3nccnc3c2[nH]c1=O` [Compound G6, N-[8-amino-7-(7-fluoro-1H-indazol-4-yl)-9-oxo-10H-pyrido[2,3-f]quinoxalin-5-yl]cyclopropanesulfonamide], the pIC50 was 8.13.

In the case of `CN1CCN(c2cc3c(-c4ccc(F)c5[nH]ncc45)c(N)c(=O)[nH]c3c3nccnc23)CC1` [Compound G7, 8-Amino-7-(7-fluoro-1H-indazol-4-yl)-5-(4-methylpiperazin-1-yl)-10H-pyrido[2,3-f]quinoxalin-9-one], the pIC50 is 8.60.

For `CC(=O)Nc1cc2c(-c3ccc(F)c4[nH]ncc34)c(N)c(=O)[nH]c2c2nccnc12` [Compound G8, N-[8-amino-7-(7-fluoro-1H-indazol-4-yl)-9-oxo-10H-pyrido[2,3-f]quinoxalin-5-yl]acetamide], the pIC50 is 8.85.

In the case of `CC(C)Nc1cc2c(-c3ccc(F)c4[nH]ncc34)c(N)c(=O)[nH]c2c2nccnc12` [Compound G9, 8-Amino-7-(7-fluoro-1H-indazol-4-yl)-5-(propan-2-ylamino)-10H-pyrido[2,3-f]quinoxalin-9-one], the pIC50 was 8.36.

Molecule `COc1cc2c(-c3ccc(F)c4[nH]ncc34)c(N)c(=O)[nH]c2c2nccnc12` [Compound G10, 8-Amino-7-(7-fluoro-1H-indazol-4-yl)-5-methoxy-10H-pyrido[2,3-f]quinoxalin-9-one] showed a pIC50 of 8.66.

As for `Nc1c(-c2ccc(F)c3[nH]ncc23)c2cc(OCC3CC3)c3nccnc3c2[nH]c1=O` [Compound G11, 8-Amino-5-(cyclopropylmethoxy)-7-(7-fluoro-1H-indazol-4-yl)-10H-pyrido[2,3-f]quinoxalin-9-one], the pIC50 was 8.60.

`N#C[C@H]1C[C@H](Oc2cc3c(-c4ccc(F)c5[nH]ncc45)c(N)c(=O)[nH]c3c3nccnc23)C1` [Compound G12, (1r,3r)-3-[[8-Amino-7-(7-fluoro-1H-indazol-4-yl)-9-oxo-10H-pyrido[2,3-f]quinoxalin-5-yl]oxy]cyclobutane-1-carbonitrile]: the pIC50 was 9.02.

Take `CC[C@H](C)Oc1cc2c(-c3ccc(F)c4[nH]ncc34)c(N)c(=O)[nH]c2c2nccnc12` [Compound G13, 8-Amino-5-[(2S)-butan-2-yl]oxy-7-(7-fluoro-1H-indazol-4-yl)-10H-pyrido[2,3-f]quinoxalin-9-one]: the pIC50 was 9.31.

In the case of `CC[C@@H](C)Oc1cc2c(-c3ccc(F)c4[nH]ncc34)c(N)c(=O)[nH]c2c2nccnc12` [Compound G14, 8-Amino-5-[(2R)-butan-2-yl]oxy-7-(7-fluoro-1H-indazol-4-yl)-10H-pyrido[2,3-f]quinoxalin-9-one], the pIC50 was 9.16.

In turn, `CC(C)Oc1cc2c(-c3ccc(F)c4[nH]ncc34)c(N)c(=O)[nH]c2c2nccnc12` [Compound G15, 8-Amino-7-(7-fluoro-1H-indazol-4-yl)-5-propan-2-yloxy-10H-pyrido[2,3-f]quinoxalin-9-one] showed a pIC50 of 8.80.

`Nc1c(-c2ccc(F)c3[nH]ncc23)c2cc(O[C@H]3C[C@@H](F)C3)c3nccnc3c2[nH]c1=O` [Compound G17, 8-Amino-5-((1s,3s)-3-fluorocyclobutyl)oxy-7-(7-fluoro-1H-indazol-4-yl)-10H-pyrido[2,3-f]quinoxalin-9-one] had a pIC50 of 9.07.

The molecule `Nc1c(-c2ccc(F)c3[nH]ncc23)c2cc(OCCC(F)F)c3nccnc3c2[nH]c1=O` [Compound G18, 8-Amino-5-(3,3-difluoropropoxy)-7-(7-fluoro-1H-indazol-4-yl)-10H-pyrido[2,3-f]quinoxalin-9-one] gave a pIC50 of 9.10.

`Nc1c(-c2ccc(F)c3[nH]ncc23)c2cc(Br)c3cnsc3c2[nH]c1=O` [Compound H1, 7-Amino-4-bromo-6-(7-fluoro-1H-indazol-4-yl)-9H-[1,2]thiazolo[4,5-h]quinolin-8-one]: the negative-log IC50 (pIC50) is 8.21.

As a reminder, the pIC50 is the negative decadic logarithm of the IC50, by convention in mol/L.
